SMILES strings stand for the structures. pIC50: −log10 of the molar value. Activity calls are given as the source filed them. No cut-off for these calls is given here.

For eight compounds, IC50 and Activity results are on record in ChEMBL document CHEMBL5678804 (Cancer Cell, 2011).

In assay [1] the test system is BaF3. The assay can be described thus: cells. As to conditions: Mus musculus, BaF3, 72 h.
Assay [2] deals with BaF3. The assay can be described thus: cells. As to conditions: Mus musculus, BaF3, 72 h. This is another data set of the same source.
Assay [3] has as its target Crk-like protein (Mus musculus, UniProt P47941, T315I). The experiment in a line: Inhibition of CrkL in mouse BaF3 cells harbouring BCR-ABL1 T315I mutant measured after 6 hrs by immunoblotting analysis. The assay is classed as cell-based. A general note: In western blotting, separated proteins are transferred to a membrane and probed.
Assay [4] deals with BaF3. The assay can be described thus: cells. As to conditions: Mus musculus, BaF3, 72 h. The source holds these as a separate data set.
For assay [5], the system named is BaF3. The assay can be described thus: cells. Particulars: Mus musculus, BaF3, 72 h. This is another data set of the same source.
Assay [6] has as its system BaF3. The assay can be described thus: cells. As to conditions: Mus musculus, BaF3, 72 h. The source holds these as a separate data set.
Assay [7] concerns BaF3. The experiment in a line: cells. Particulars: Mus musculus, BaF3, 72 h. This is another data set of the same source.
For assay [8], the system named is BaF3. The experiment in a line: cells. As to conditions: Mus musculus, BaF3, 72 h. This is another data set of the same source.
Assay [9] concerns BaF3. The experiment in a line: cells. As to conditions: Mus musculus, BaF3, 72 h. The source holds these as a separate data set.
Assay [10] relates to BaF3. The experiment in a line: cells. As to conditions: Mus musculus, BaF3, 72 h. The source holds these as a separate data set.
For assay [11], the system named is BaF3. The assay can be described thus: cells. Particulars: Mus musculus, BaF3, 72 h. The source holds these as a separate data set.
The test system of assay [12] is BaF3. The assay can be described thus: cells. As to conditions: Mus musculus, BaF3, 72 h. This is another data set of the same source.
Assay [13] relates to BaF3. The experiment in a line: cells. As to conditions: Mus musculus, BaF3, 72 h. The source holds these as a separate data set.
The subject of assay [14] is BaF3. The assay can be described thus: cells. As to conditions: Mus musculus, BaF3, 72 h. This is another data set of the same source.
In assay [15] the test system is BaF3. The experiment in a line: cells. Particulars: Mus musculus, BaF3, 72 h. The source holds these as a separate data set.
Assay [16] has as its system BaF3. The assay can be described thus: cells. Particulars: Mus musculus, BaF3, 72 h. The source holds these as a separate data set.
Assay [17] concerns BaF3. The experiment in a line: cells. Particulars: Mus musculus, BaF3, 72 h. This is another data set of the same source.
Assay [18] deals with Tyrosine-protein kinase ABL1 (Homo sapiens, UniProt P00519, T315I). The experiment in a line: Inhibition of human ABL1 T315I mutant (229 to 499 residues) using ABLtide as substrate preincubated for 2 hrs followed by ATP addition and measured every 2 mins for […] by spectrophotometric analysis.
Assay [19] concerns the target Tyrosine-protein kinase ABL1 (Homo sapiens, UniProt P00519). The assay can be described thus: Inhibition of human N-terminal his tagged native ABL1 (229 to 499 residues) expressed in Sf9 cells using ABLtide as substrate preincubated for 2 hrs followed by ATP addition and measured every 2 mins for […] by spectrophotometric analysis.
The test system of assay [20] is BaF3. The assay can be described thus: Antitumor activity against mouse BaF3 cells harbouring BCR-ABL1 T315I mutant xenografted in Balb/c mouse model assessed as prolongation of animal survival at 100 mg/kg, po administered twice daily for 21 days. The assay is classed as functional, organism-based. Particulars: time 21.0 day.

Chain of Crk-like protein (P47941 whole entry, looked up, stated change not applied): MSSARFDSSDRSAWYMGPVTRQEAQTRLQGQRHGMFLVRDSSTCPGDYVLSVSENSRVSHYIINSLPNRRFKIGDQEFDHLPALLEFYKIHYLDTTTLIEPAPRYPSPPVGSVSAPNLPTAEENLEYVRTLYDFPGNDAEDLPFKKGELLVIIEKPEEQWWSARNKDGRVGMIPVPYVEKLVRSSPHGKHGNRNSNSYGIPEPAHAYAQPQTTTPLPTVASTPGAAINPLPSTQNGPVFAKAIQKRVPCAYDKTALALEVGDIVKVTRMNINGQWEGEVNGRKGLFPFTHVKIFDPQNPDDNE

Take `Cc1cn(-c2cc(NC(=O)c3ccc(C)c(Nc4nccc(-c5cccnc5)n4)c3)cc(C(F)(F)F)c2)cn1` [NILOTINIB]: the values for the negative-log IC50 (pIC50) in assay [1], in assay [2] and in [3] were 7.02, 5.02 and less than 5.30, respectively.
For `Cc1cc(Nc2cc(N3CCN(C)CC3)nc(Sc3ccc(NC(=O)C4CC4)cc3)n2)n[nH]1` [TOZASERTIB], the negative logarithm of the IC50 (pIC50) – broadly, the negative decadic logarithm of the IC50, by convention in mol/L – is 6.80 in assay [4]; 6.72 in [1]; 6.74 in [5]; 6.98 in assay [6]; 6.70 in [7]; 6.89 in assay [8]. The negative-log IC50 (pIC50) in assay [9] is 6.72; in assay [10], 7.10; in assay [11], 7.13; in assay [12] it was 7.08; in [13], 7.19; in assay [14], 6.89. Moreover, the negative logarithm of the IC50 (pIC50) in assay [15] is 6.96; in [16] it was 7.08; in assay [17], 7.06.
As to `CC(C)(C)c1cc(NC(=O)Nc2cccc(Cl)c2Cl)n(-c2ccc3ncccc3c2)n1`, the pIC50 in assay [18] was 6.15.
With `CNC(=O)c1cc(Oc2ccc(NC(=O)Nc3cc(C(C)(C)C)nn3C)c(F)c2)ccn1`, the pIC50 is 7.10 in [18] and 7.06 in [19].
For the compound `Cc1ccc(NC(=O)c2ccc(CN3CCN(C)CC3)cc2)cc1Nc1nccc(-c2cccnc2)n1` [IMATINIB], the result in assay [20] was inactive.
With `Cc1nc(Nc2ncc(C(=O)Nc3c(C)cccc3Cl)s2)cc(N2CCN(CCO)CC2)n1` [DASATINIB ANHYDROUS], the pIC50 in [4] is 8.92; in assay [1], 8.70; in assay [2], 5.42; in assay [5] it was 8.55; in [6], 9.40; in [7] it was 8.10. Further, the pIC50 in [8] was 8.57; in assay [9], 9.00; in [10], 8.70; in assay [12] it was 8.64; in assay [13] it was 8.96; in [14] it was 9.52. Also, the negative-log IC50 (pIC50) is 8.14 in assay [15], 8.10 in [16], 7.19 in assay [17] and less than 5.30 in assay [3].
Turning to `CC(C)(C)c1cc(NC(=O)Nc2cccc(Cl)c2Cl)n(-c2ccc3c(c2)C[C@@H](C(=O)O)NC3)n1`, the figures for the pIC50 in assay [18] and in assay [19] were 6.11 and 7.24, respectively.
Take `CNC(=O)c1cc(Oc2ccc(NC(=O)Nc3cc(C(C)(C)C)nn3-c3ccc4c(c3)CCNC4)c(F)c2)ccn1`: the values for the pIC50 in assay [18] and in [19] were 7.77 and 8.05, respectively.
